From patent US20260347347A1, “2-AZA-AND 2-OXABICYCLO[2.1.1]HEXANE DERIVATIVES AS FACTOR XIIA ENZYME INHIBITORS” (KALVISTA PHARMACEUTICALS LIMITED, priority 2022, published 2026)

biological target: T1, Human Factor XIIa (Homo sapiens, UniProt P00748); test: Determination of FXIIa inhibition (in vitro IC50 assay, fluorogenic substrate H-DPro-Phe-Arg-AFC); assay type: biochemical; conditions: human Factor XIIa; fluorogenic substrate H-DPro-Phe-Arg-AFC at Km concentration; 5 min, 25 °C; class symbols H1/H2 for % inhibition at top concentration
T1 construct: purchased Enzyme Research Laboratories
T1 sequence (P00748 373-615 limits assumed): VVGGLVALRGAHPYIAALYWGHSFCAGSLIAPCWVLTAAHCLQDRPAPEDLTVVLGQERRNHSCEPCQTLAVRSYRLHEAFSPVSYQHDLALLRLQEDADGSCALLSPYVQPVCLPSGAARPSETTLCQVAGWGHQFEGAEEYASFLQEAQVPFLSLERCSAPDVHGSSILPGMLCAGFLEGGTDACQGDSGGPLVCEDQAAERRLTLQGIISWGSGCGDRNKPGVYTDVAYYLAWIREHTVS
T1 sequence (P00748 20-372 partner limits assumed): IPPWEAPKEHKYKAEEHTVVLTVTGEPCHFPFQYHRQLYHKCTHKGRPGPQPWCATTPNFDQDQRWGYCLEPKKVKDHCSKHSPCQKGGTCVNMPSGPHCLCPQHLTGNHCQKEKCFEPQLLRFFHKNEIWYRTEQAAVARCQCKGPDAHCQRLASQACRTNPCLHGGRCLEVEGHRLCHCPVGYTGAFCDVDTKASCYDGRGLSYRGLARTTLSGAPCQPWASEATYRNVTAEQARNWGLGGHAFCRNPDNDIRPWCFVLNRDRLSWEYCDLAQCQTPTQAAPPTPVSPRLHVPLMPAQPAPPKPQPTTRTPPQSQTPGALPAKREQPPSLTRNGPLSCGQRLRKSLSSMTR
Method in brief: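 Human FXIIa incubated at 25 °C with compound and H-DPro-Phe-Arg-AFC at its Km concentration. Linear fluorescence increase monitored over 5 min, expressed as % of uninhibited activity; IC50 is concentration giving 50% inhibition.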

Human FXIIa inhibition (compounds that did not achieve 50% inhibition) | Compound
H2 (>20% inhibition @ 100 μM) | Cc1cc(OCC23CN(C(=O)NC4(c5ccccc5)CC4)C(CNc4cccnc4F)(C2)C3)cc(=O)n1C [Example 67, 4-(((1,6-dimethyl-2-oxo-1,2-dihydropyridin-4-yl)oxy)methyl)-1-(((2-fluoropyridin-3-yl)amino)methyl)-N-(1-phenylcyclopropyl)-2-azabicyclo[2.1.1]hexane-2-carboxamide]
H1 (>20% inhibition @ 40 μM) | Cc1cc(OCC23CN(C(=O)NC4(c5ccccc5)CC4)C(CNc4ccccc4C#N)(C2)C3)cc(=O)n1C [Example 68, 1-(((2-cyanophenyl)amino)methyl)-4-(((1,6-dimethyl-2-oxo-1,2-dihydropyridin-4-yl)oxy)methyl)-N-(1-phenylcyclopropyl)-2-azabicyclo[2.1.1]hexane-2-carboxamide]

same assay, conditions: human Factor XIIa; fluorogenic substrate H-DPro-Phe-Arg-AFC at Km concentration; 5 min, 25 °C; class symbols; read-out: Human FXIIa IC50

IC50 [nM] | Compound
10000 to 40000 | Cc1cc(OCC23CN(C(=O)NC4(c5ccccc5)CC4)C(CNc4ccc(N)nc4)(C2)C3)cc(=O)n1C [Example 58, 1-(((6-aminopyridin-3-yl)amino)methyl)-4-(((1,6-dimethyl-2-oxo-1,2-dihydropyridin-4-yl)oxy)methyl)-N-(1-phenylcyclopropyl)-2-azabicyclo[2.1.1]hexane-2-carboxamide]
1 to 10 | Cc1cc(OCC23CN(C(=O)NC4(c5ccccc5)CC4)C(CNc4cccc5c(N)nccc45)(C2)C3)cc(=O)n1C [Example 57, 1-(((1-aminoisoquinolin-5-yl)amino)methyl)-4-(((1,6-dimethyl-2-oxo-1,2-dihydropyridin-4-yl)oxy)methyl)-N-(1-phenylcyclopropyl)-2-azabicyclo[2.1.1]hexane-2-carboxamide]
40000 to 100000 | Cc1cc(OCC23CN(C(=O)NC4(c5ccccc5)CC4)C(CNc4cccnc4O)(C2)C3)cc(=O)n1C [Example 71, 4-(((1,6-Dimethyl-2-oxo-1,2-dihydropyridin-4-yl)oxy)methyl)-1-(((2-hydroxypyridin-3-yl)amino)methyl)-N-(1-phenylcyclopropyl)-2-azabicyclo[2.1.1]hexane-2-carboxamide]
10 to 100 | Cc1cc(OCC23CN(C(=O)N4CCC(c5ccccc5)CC4)C(CNc4cccc5c(N)nccc45)(C2)C3)cc(=O)n1C [Example 70, 4-((1-(((1-aminoisoquinolin-5-yl)amino)methyl)-2-(4-phenylpiperidine-1-carbonyl)-2-azabicyclo[2.1.1]hexan-4-yl)methoxy)-1,6-dimethylpyridin-2(1H)-one]

Continued, compound first:

Compound | IC50 [nM]
Cn1ccc(OCC23CC(CNc4cccc5c(N)nccc45)(CN2C(=O)CCC2CCCCC2)C3)cc1=O [Example 102, 4-((4-(((1-Aminoisoquinolin-5-yl)amino)methyl)-2-(3-cyclohexylpropanoyl)-2-azabicyclo[2.1.1]hexan-1-yl)methoxy)-1-methylpyridin-2(1H)-one] | 100 to 300
Cn1ccc(OCC23CN(C(=O)N4CCOCC4)C(CNc4cccc5c(N)nccc45)(C2)C3)cc1=O [Example 31, 4-((1-(((1-aminoisoquinolin-5-yl)amino)methyl)-2-(morpholine-4-carbonyl)-2-azabicyclo[2.1.1]hexan-4-yl)methoxy)-1-methylpyridin-2(1H)-one] | 10 to 100
Cn1ccc(OCC23CN(C(=O)C(C)(C)Cc4ccccc4)C(CNc4cccc5c(N)nccc45)(C2)C3)cc1=O [Example 7, 4-((1-(((1-aminoisoquinolin-5-yl)amino)methyl)-2-(2,2-dimethyl-3-phenylpropanoyl)-2-azabicyclo[2.1.1]hexan-4-yl)methoxy)-1-methylpyridin-2(1H)-one] | 100 to 300
CN(CC1CC1)C(=O)N1CC2(COc3ccn(C)c(=O)c3)CC1(CNc1cccc3c(N)nccc13)C2 [Example 53, 1-(((1-aminoisoquinolin-5-yl)amino)methyl)-N-(cyclopropylmethyl)-N-methyl-4-(((1-methyl-2-oxo-1,2-dihydropyridin-4-yl)oxy)methyl)-2-azabicyclo[2.1.1]hexane-2-carboxamide] | 10 to 100
Cn1ccc(OCC23CN(C(=O)N4CCc5ccccc54)C(CNc4cccc5c(N)nccc45)(C2)C3)cc1=O [Example 34, 4-((1-(((1-aminoisoquinolin-5-yl)amino)methyl)-2-(indoline-1-carbonyl)-2-azabicyclo[2.1.1]hexan-4-yl)methoxy)-1-methylpyridin-2(1H)-one] | 10 to 100
Cc1cc(OCC23CN(c4ccc(C5CC5)nn4)C(CNc4cccc5c(N)nccc45)(C2)C3)cc(=O)n1C [Example 95, 4-((1-(((1-Aminoisoquinolin-5-yl)amino)methyl)-2-(6-cyclopropylpyridazin-3-yl)-2-azabicyclo[2.1.1]hexan-4-yl)methoxy)-1,6-dimethylpyridin-2(1H)-one] | 10 to 100
Cn1ccc(OCC23CN(C(=O)N4CCOc5ccccc54)C(CNc4cccc5c(N)nccc45)(C2)C3)cc1=O [Example 35, 4-((1-(((1-aminoisoquinolin-5-yl)amino)methyl)-2-(3,4-dihydro-2H-benzo[b][1,4]oxazine-4-carbonyl)-2-azabicyclo[2.1.1]hexan-4-yl)methoxy)-1-methylpyridin-2(1H)-one] | 10 to 100
Cn1ccc(OCC23CN(C(=O)C[C@H]4CCOC4)C(CNc4cccc5c(N)nccc45)(C2)C3)cc1=O [Example 10, (R)-4-((1-(((1-aminoisoquinolin-5-yl)amino)methyl)-2-(2-(tetrahydrofuran-3-yl)acetyl)-2-azabicyclo[2.1.1]hexan-4-yl)methoxy)-1-methylpyridin-2(1H)-one] | 10 to 100
Cn1ccc(CCC(=O)N2CC3(COc4ccn(C)c(=O)c4)CC2(CNc2cccc4c(N)nccc24)C3)cc1=O [Example 19, 4-((1-(((1-aminoisoquinolin-5-yl)amino)methyl)-2-(3-(1-methyl-2-oxo-1,2-dihydropyridin-4-yl)propanoyl)-2-azabicyclo[2.1.1]hexan-4-yl)methoxy)-1-methylpyridin-2(1H)-one] | 10 to 100
Cc1cc(OCC23CN(C(=O)N4CC(C5CCOCC5)C4)C(CNc4cccc5c(N)nccc45)(C2)C3)cc(=O)n1C [Example 72, 4-((1-(((1-aminoisoquinolin-5-yl)amino)methyl)-2-(3-(tetrahydro-2H-pyran-4-yl)azetidine-1-carbonyl)-2-azabicyclo[2.1.1]hexan-4-yl)methoxy)-1,6-dimethylpyridin-2(1H)-one] | 10 to 100
Cn1ccc(OCC23CN(C(=S)Nc4ccccc4)C(CNc4cccc5c(N)nccc45)(C2)C3)cc1=O [Example 91, 1-(((1-Aminoisoquinolin-5-yl)amino)methyl)-4-(((1-methyl-2-oxo-1,2-dihydropyridin-4-yl)oxy)methyl)-N-phenyl-2-azabicyclo[2.1.1]hexane-2-carbothioamide] | 10 to 100
Cn1ccc(OCC23CN(C(=O)N4CC[C@@H](c5ccccc5)C4)C(CNc4cccc5c(N)nccc45)(C2)C3)cc1=O [Example 44, (S)-4-((1-(((1-aminoisoquinolin-5-yl)amino)methyl)-2-(3-phenylpyrrolidine-1-carbonyl)-2-azabicyclo[2.1.1]hexan-4-yl)methoxy)-1-methylpyridin-2(1H)-one] | 1 to 10
Cn1ccc(OCC23CN(C(=O)NC(C)(C)c4ccccc4)C(CNc4cccc5c(N)nccc45)(C2)C3)cc1=O [Example 66, 1-(((1-Aminoisoquinolin-5-yl)amino)methyl)-4-(((1-methyl-2-oxo-1,2-dihydropyridin-4-yl)oxy)methyl)-N-(2-phenylpropan-2-yl)-2-azabicyclo[2.1.1]hexane-2-carboxamide] | 1 to 10
